Test results from the NIST ThermoML archive (doi:10.1016/j.fluid.2005.06.010).

Assay: xn = mol fraction of the nth substance listed
Details: Fluid (supercritical or subcritical phases), Vibrating tube method

c1ccc2ccccc2c1 [naphthalene] + O=C=O
Details	mass density [kg/m3]
323.07 K, 21967 kPa, x1 = 0.0049	814.97
323.07 K, 21991 kPa, x1 = 0.0235	840.23
323.07 K, 22035 kPa, x1 = 0.0093	823.39
323.07 K, 22055 kPa, x1 = 0.0144	828.6
323.07 K, 23011 kPa, x1 = 0.0144	836.78
323.07 K, 23014 kPa, x1 = 0.0049	824.8
323.07 K, 23024 kPa, x1 = 0.0235	848.46
323.07 K, 23037 kPa, x1 = 0.0093	832.27
323.07 K, 23975 kPa, x1 = 0.0144	844.56
323.07 K, 24012 kPa, x1 = 0.0235	855.79
323.07 K, 24013 kPa, x1 = 0.0093	840.35
323.07 K, 24015 kPa, x1 = 0.0049	833.51
323.07 K, 25007 kPa, x1 = 0.0235	862.81
323.07 K, 25048 kPa, x1 = 0.0093	848.36
323.08 K, 12879 kPa, x1 = 0.0173	702.14
323.08 K, 13019 kPa, x1 = 0.0173	705.93
323.08 K, 13536 kPa, x1 = 0.0173	719.07
323.08 K, 14042 kPa, x1 = 0.0173	730.6
323.08 K, 15088 kPa, x1 = 0.0173	750.8
323.08 K, 16012 kPa, x1 = 0.0173	766
323.08 K, 17038 kPa, x1 = 0.0173	780.79
323.08 K, 18011 kPa, x1 = 0.0173	793.15
323.08 K, 19021 kPa, x1 = 0.0173	804.74
323.08 K, 20018 kPa, x1 = 0.0173	815.17
323.08 K, 21012 kPa, x1 = 0.0173	824.64
323.08 K, 22051 kPa, x1 = 0.0173	833.83
323.08 K, 23040 kPa, x1 = 0.0173	842.05
323.08 K, 24014 kPa, x1 = 0.0173	849.58
323.08 K, 24688 kPa, x1 = 0.0173	854.56
323.11 K, 11710 kPa, x1 = 0.0065	608.68
323.11 K, 11886 kPa, x1 = 0.0065	618.53
323.11 K, 12112 kPa, x1 = 0.0065	630.1
323.11 K, 12597 kPa, x1 = 0.0065	651.76
323.11 K, 13175 kPa, x1 = 0.0065	672.88
323.11 K, 14114 kPa, x1 = 0.0065	700.29
323.11 K, 14946 kPa, x1 = 0.0065	719.89
323.11 K, 15974 kPa, x1 = 0.0065	740.17
323.11 K, 17091 kPa, x1 = 0.0065	758.86
323.11 K, 18018 kPa, x1 = 0.0065	772.31
323.11 K, 19119 kPa, x1 = 0.0065	786.49
323.11 K, 19947 kPa, x1 = 0.0065	796.13
323.11 K, 21027 kPa, x1 = 0.0065	807.77
323.11 K, 22102 kPa, x1 = 0.0065	818.31
323.11 K, 23244 kPa, x1 = 0.0065	828.6
323.11 K, 23905 kPa, x1 = 0.0065	834.23
323.11 K, 24345 kPa, x1 = 0.0065	837.73
323.13 K, 10131 kPa, x1 = 0.0038	441.7
323.13 K, 10204 kPa, x1 = 0.0038	452.21
323.13 K, 10370 kPa, x1 = 0.0038	473.73
323.13 K, 10546 kPa, x1 = 0.0038	495.19
323.13 K, 10713 kPa, x1 = 0.0038	513.93
323.13 K, 10899 kPa, x1 = 0.0038	532.86
323.13 K, 11125 kPa, x1 = 0.0038	553.43
323.13 K, 11428 kPa, x1 = 0.0038	577.02
323.13 K, 11636 kPa, x1 = 0.0038	591
323.13 K, 11975 kPa, x1 = 0.0038	610.86
323.13 K, 12255 kPa, x1 = 0.0038	625.25
323.13 K, 12628 kPa, x1 = 0.0038	641.9
323.13 K, 13011 kPa, x1 = 0.0038	656.88
323.13 K, 13569 kPa, x1 = 0.0038	675.56
323.13 K, 14021 kPa, x1 = 0.0038	688.77
323.13 K, 15003 kPa, x1 = 0.0038	713.06
323.13 K, 16030 kPa, x1 = 0.0038	733.89
323.13 K, 17020 kPa, x1 = 0.0038	750.95
323.13 K, 18020 kPa, x1 = 0.0038	766.06
323.13 K, 19025 kPa, x1 = 0.0038	779.54
323.13 K, 20018 kPa, x1 = 0.0038	791.52
323.13 K, 21018 kPa, x1 = 0.0038	802.54
323.13 K, 22016 kPa, x1 = 0.0038	812.65
323.13 K, 23026 kPa, x1 = 0.0038	822.13
323.13 K, 24020 kPa, x1 = 0.0038	830.83
323.13 K, 25003 kPa, x1 = 0.0038	838.9
327.94 K, 14128 kPa, x1 = 0.0198	700.18
327.94 K, 15025 kPa, x1 = 0.0198	721
327.94 K, 15984 kPa, x1 = 0.0198	739.45
327.94 K, 17037 kPa, x1 = 0.0198	756.72
327.94 K, 18024 kPa, x1 = 0.0198	770.78
327.94 K, 18966 kPa, x1 = 0.0198	782.81
327.94 K, 20021 kPa, x1 = 0.0198	794.93
327.94 K, 21050 kPa, x1 = 0.0198	805.66
327.94 K, 22039 kPa, x1 = 0.0198	815.2
327.94 K, 22982 kPa, x1 = 0.0198	823.62
327.94 K, 24044 kPa, x1 = 0.0198	832.44
327.94 K, 25048 kPa, x1 = 0.0198	840.3
327.98 K, 20991 kPa, x1 = 0.0276	810.47
327.98 K, 22012 kPa, x1 = 0.0276	819.85
327.98 K, 23092 kPa, x1 = 0.0276	829.12
327.98 K, 23996 kPa, x1 = 0.0276	836.33
327.98 K, 24882 kPa, x1 = 0.0276	843.08
327.99 K, 11253 kPa, x1 = 0.0049	476.13
327.99 K, 11541 kPa, x1 = 0.0049	502.2
327.99 K, 12000 kPa, x1 = 0.0049	538.29
327.99 K, 13016 kPa, x1 = 0.0049	598.5
327.99 K, 14020 kPa, x1 = 0.0049	639.93
327.99 K, 15009 kPa, x1 = 0.0049	671.01
327.99 K, 16051 kPa, x1 = 0.0049	696.96
327.99 K, 16996 kPa, x1 = 0.0049	716.42
327.99 K, 18024 kPa, x1 = 0.0049	734.62
327.99 K, 18955 kPa, x1 = 0.0394	812.97
327.99 K, 19015 kPa, x1 = 0.0049	750.05
327.99 K, 19491 kPa, x1 = 0.0394	818.42
327.99 K, 20015 kPa, x1 = 0.0394	823.07
327.99 K, 20048 kPa, x1 = 0.0049	764.24
327.99 K, 20960 kPa, x1 = 0.0394	831.55
327.99 K, 21025 kPa, x1 = 0.0049	776.39
327.99 K, 22010 kPa, x1 = 0.0394	840.78
327.99 K, 22049 kPa, x1 = 0.0049	788
327.99 K, 23023 kPa, x1 = 0.0049	798.13
327.99 K, 23040 kPa, x1 = 0.0394	848.69
327.99 K, 24009 kPa, x1 = 0.0394	855.98
327.99 K, 24079 kPa, x1 = 0.0049	808.33
327.99 K, 24881 kPa, x1 = 0.0394	861.95
328 K, 12017 kPa, x1 = 0.0093	567.42
328 K, 12517 kPa, x1 = 0.0093	596.95
328 K, 12987 kPa, x1 = 0.0173	652.9
328 K, 13018 kPa, x1 = 0.0144	638.84
328 K, 13022 kPa, x1 = 0.0093	621.23
328 K, 13497 kPa, x1 = 0.0144	656.68
328 K, 13513 kPa, x1 = 0.0173	670.93
328 K, 13916 kPa, x1 = 0.0235	697.69
328 K, 14000 kPa, x1 = 0.0144	672.81
328 K, 14016 kPa, x1 = 0.0173	685.86
328 K, 14033 kPa, x1 = 0.0093	659.25
328 K, 14510 kPa, x1 = 0.0235	712.23
328 K, 14988 kPa, x1 = 0.0235	722.58
328 K, 15031 kPa, x1 = 0.0173	710.98
328 K, 15041 kPa, x1 = 0.0093	688.02
328 K, 15044 kPa, x1 = 0.0144	700.6
328 K, 16003 kPa, x1 = 0.0235	741.93
328 K, 16024 kPa, x1 = 0.0093	710.6
328 K, 16029 kPa, x1 = 0.0173	731.18
328 K, 16033 kPa, x1 = 0.0144	721.87
328 K, 17009 kPa, x1 = 0.0144	739.63
328 K, 17031 kPa, x1 = 0.0093	730
328 K, 17033 kPa, x1 = 0.0173	748.41
328 K, 17036 kPa, x1 = 0.0235	758.59
328 K, 18019 kPa, x1 = 0.0235	772.44
328 K, 18021 kPa, x1 = 0.0144	755.54
328 K, 18047 kPa, x1 = 0.0173	763.56
328 K, 18057 kPa, x1 = 0.0093	747.01
328 K, 19027 kPa, x1 = 0.0235	785.16
328 K, 19029 kPa, x1 = 0.0173	776.56
328 K, 19034 kPa, x1 = 0.0144	769.62
328 K, 19042 kPa, x1 = 0.0093	761.34
328 K, 20006 kPa, x1 = 0.0093	774.02
328 K, 20013 kPa, x1 = 0.0173	788.3
328 K, 20015 kPa, x1 = 0.0235	796.35
328 K, 20048 kPa, x1 = 0.0144	782.23
328 K, 21013 kPa, x1 = 0.0093	785.89
328 K, 21023 kPa, x1 = 0.0235	806.8
328 K, 21036 kPa, x1 = 0.0173	799.42
328 K, 21043 kPa, x1 = 0.0144	793.46
328 K, 22023 kPa, x1 = 0.0235	816.35
328 K, 22030 kPa, x1 = 0.0144	803.66
328 K, 22034 kPa, x1 = 0.0093	796.9
328 K, 22064 kPa, x1 = 0.0173	809.6
328 K, 23029 kPa, x1 = 0.0173	818.53
328 K, 23041 kPa, x1 = 0.0235	825.35
328 K, 23052 kPa, x1 = 0.0093	807.08
328 K, 23065 kPa, x1 = 0.0144	813.57
328 K, 24012 kPa, x1 = 0.0144	821.99
328 K, 24037 kPa, x1 = 0.0235	833.62
328 K, 24065 kPa, x1 = 0.0093	816.43
328 K, 24082 kPa, x1 = 0.0173	827.53
328 K, 24770 kPa, x1 = 0.0144	828.36
328 K, 24838 kPa, x1 = 0.0173	833.72
328 K, 25066 kPa, x1 = 0.0235	841.58
328 K, 25067 kPa, x1 = 0.0093	825.06
328.08 K, 11635 kPa, x1 = 0.0065	518.62
